Laboratory results reported in patent US7067549B2, “Pyrrolidone carboxamides” (Actelion Pharmaceuticals AG, priority 2001, dated 2006).

Target: T1, mouse NPY-Y5 receptors (mNPY-Y5) (Mus musculus, UniProt O70342)
T1 construct: The full-length cDNA which contains the mouse NPY-Y5 (mNPY-Y5) receptor coding was amplified from mouse brain cDNA; expressed in transfected cells
T1 sequence (O70342 1-466): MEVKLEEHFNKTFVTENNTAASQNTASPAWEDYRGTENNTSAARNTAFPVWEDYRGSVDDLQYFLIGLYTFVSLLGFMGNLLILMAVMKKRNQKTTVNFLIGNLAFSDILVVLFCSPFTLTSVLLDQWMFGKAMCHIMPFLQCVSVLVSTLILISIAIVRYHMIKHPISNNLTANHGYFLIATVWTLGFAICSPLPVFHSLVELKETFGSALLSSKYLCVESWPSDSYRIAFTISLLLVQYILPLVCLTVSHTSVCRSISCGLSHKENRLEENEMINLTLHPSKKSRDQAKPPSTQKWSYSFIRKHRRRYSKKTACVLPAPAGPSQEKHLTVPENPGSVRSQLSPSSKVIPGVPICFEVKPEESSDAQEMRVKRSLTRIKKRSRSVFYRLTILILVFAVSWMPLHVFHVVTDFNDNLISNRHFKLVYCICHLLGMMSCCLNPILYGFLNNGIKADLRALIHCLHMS
Assay: Radioligand competition binding (125I-PYY) on membranes of HEK293 cells expressing recombinant mouse NPY-Y5 receptor
Details: displacement of 100 pM 125I-labeled PYY, 1 h at 22° C., read-out: NPY5 IC50
Excerpt: The full-length cDNA which contains the mouse NPY-Y5 (mNPY-Y5) receptor coding was amplified from mouse brain cDNA using specific primers, which were custom-made on the basis of published sequences, and employing Pfu DNA polymerase (Stratagene). The amplification product was subcloned into a mammalian expression vector pcDNA3 using EcoRI and XhoI restriction sites. Positive clones were sequenced; one clone, which contained the published sequence, was selected for preparing stable cell clones.
Human embryonic kidney 293 (HEK293) cells were transfected with 10 μg of mNPY5 DNA using Lipofectamine reagent (Gibco BRL) in accordance with the manufacturer's instructions. Two days after the transfection, the geneticin selection (1 mg/ml) was initiated and several stable clones were isolated. One of the clones was used for further pharmacological characterization.
Human embryonic kidney cells (HEK293) which express recombinant mouse NPY-Y5 receptors (mNPY-Y5) were disrupted by being frozen/thawed three times in hypotonic Tris buffer (5 mM, pH 7.4, 1 mM MgCl2), after which they were homogenized and centrifuged at 72 000 G for 15 minutes. The precipitate was washed twice with Tris buffer (pH 7.4) containing 25 mM MgCl2, 250 mM sucrose, 0.1 mM phenylmethylsulfonyl fluoride and 0.1 mM 1,10-phenanthroline, then resuspended in the same buffer and stored in aliquots at −80° C. The protein was determined by the Lowry method using bovine serum albumin (BSA) as the standard.
The competition binding analysis was carried out in 250 μl of 25 mM Hepes buffer (pH 7.4, 2.5 mM CaCl2, 1 mM MgCl2, 1% bovine serum albumin and 0.01% sodium azide) which 5 μg of protein, 100 pM ^125I-labeled peptide YY (PYY) and 10 μl of a DMSO solution containing increasing quantities of DMSO solution containing unlabeled test compound. After a one-hour incubation at 22° C., the bound ligand was separated from the unbound ligand by means of filtration through a glass fiber filter. Nonspecific binding was determined in the presence of 1 μM unlabeled PYY. Specific binding is defined as the difference between total binding and nonspecific binding. An IC50 value is defined as the concentration of the antagonist which displaces 50% of the ^125I-labeled […]. This concentration is determined by linear regression analysis following logit/log transformation of the binding values.

SMILES: CCn1c2ccccc2c2cc(NC(=O)C3CC(=O)N(c4ccccc4)C3)ccc21 (racemic) [rac. N-(9-Ethyl-9H-carbazol-3-yl)-5-oxo-1-phenylpyrrolidine-3-carboxamide]
- IC50: 21 nM

SMILES: CC(C)c1ccccc1N1CC(C(=O)Nc2ccc(N(C)c3ccccc3)cc2)CC1=O (racemic) [rac. N-[4-(Methylphenylamino)phenyl]-1-(2-isopropylphenyl)-5-oxopyrrolidine-3-carboxamide]
- IC50: 20 nM

SMILES: COc1ccc(C)c(N2CC(C(=O)Nc3ccc(N(CC4CC4)c4ccccc4)cc3)CC2=O)c1 (racemic) [rac. N-[4-(Cyclopropylmethylphenylamino)phenyl]-1-(5-methoxy-2-methylphenyl)-5-oxopyrrolidine-3-carboxamide]
- IC50: 34 nM

SMILES: CCn1c2ccccc2c2cc(NC(=O)C3CC(=O)N(Cc4ccccc4Cl)C3)ccc21 (racemic) [rac. N-(9-Ethyl-9H-carbazol-3-yl)-1-(2-chlorobenzyl)-5-oxopyrrolidine-3-carboxamide]
- IC50: 20 nM

SMILES: CCN(c1ccc(NC(=O)C2CC(=O)N(c3cccc(OC)c3)C2)cc1)c1nc(C)cc(C)n1 (racemic) [rac. N-{4-[(4,6-Dimethylpyrimidin-2-yl)ethylamino]phenyl}-1-(3-methoxyphenyl)-5-oxopyrrolidine-3-carboxamide]
- IC50: 44 nM

SMILES: Cc1cc(C)nc(Nc2ccc(NC(=O)C3CC(=O)N(C4Cc5ccccc5C4)C3)cc2)n1 (racemic) [rac. N-[4-(4,6-Dimethylpyrimidin-2-ylamino)phenyl]-1-indan-2-yl-5-oxopyrrolidine-3-carboxamide]
- IC50: 30 nM

SMILES: CCN(CCO)c1ccc(NC(=O)C2CC(=O)N(c3cc(C)ccc3C)C2)cc1 (racemic) [rac. N-{4-[Ethyl-(2-hydroxyethyl)amino]phenyl}-1-(2,5-dimethylphenyl)-5-oxopyrrolidine-3-carboxamide]
- IC50: 16 nM

SMILES: CCN(c1ccccc1)c1ccc(NC(=O)C2CC(=O)N(C3Cc4ccccc4C3)C2)cc1 (racemic) [rac. N-[4-(Ethylphenylamino)phenyl]-1-indan-2-yl-5-oxopyrrolidine-3-carboxamide]
- IC50: 49 nM

SMILES: CCN(c1ccc(NC(=O)C2CC(=O)N(CCc3ccccn3)C2)cc1)c1nc(C)cc(C)n1 (racemic) [rac. N-{4-[(4,6-Dimethylpyrimidin-2-yl)ethylamino]phenyl}-5-oxo-1-(2-pyridin-2-ylethyl)pyrrolidine-3-carboxamide]
- IC50: 24 nM

SMILES: CCn1c2ccccc2c2cc(NC(=O)C3CC(=O)N(c4ccccc4C(C)C)C3)ccc21 (racemic) [rac. N-(9-Ethyl-9H-carbazol-3-yl)-1-(2-isopropylphenyl)-5-oxopyrrolidine-3-carboxamide]
- IC50: 10 nM

SMILES: CCN(c1ccccc1)c1ccc(NC(=O)C2CC(=O)N(c3cc(C)ccc3C)C2)cc1 (racemic) [rac. N-[4-(Ethylphenylamino)phenyl]-1-(2,5-dimethylphenyl)-5-oxopyrrolidine-3-carboxamide]
- IC50: 17 nM

SMILES: CCn1c2ccccc2c2cc(NC(=O)C3CC(=O)N(C4Cc5ccccc5C4)C3)ccc21 (racemic) [rac. N-(9-Ethyl-9H-carbazol-3-yl)-1-indan-2-yl-5-oxopyrrolidine-3-carboxamide]
- IC50: 32 nM

SMILES: CCn1c2ccccc2c2cc(NC(=O)C3CC(=O)N(Cc4ccccc4)C3)ccc21 (racemic) [rac. N-(9-Ethyl-9H-carbazol-3-yl)-1-benzyl-5-oxopyrrolidine-3-carboxamide]
- IC50: 32 nM

SMILES: CCOC(=O)CN(c1ccccc1)c1ccc(NC(=O)C2CC(=O)N(c3cc(C)ccc3C)C2)cc1 (racemic) [rac. Ethyl [(4-{[1-(2,5-dimethylphenyl)-5-oxopyrrolidine-3-carbonyl]amino}phenyl)phenylamino]acetate]
- IC50: 13 nM

SMILES: CCn1c2ccccc2c2cc(NC(=O)C3CC(=O)N(CC(O)c4ccccc4)C3)ccc21 (racemic) [rac. N-(9-Ethyl-9H-carbazol-3-yl)-1-(2-hydroxy-2-phenylethyl)-5-oxopyrrolidine-3-carboxamide]
- IC50: 8 nM

SMILES: Cc1ccc(C)c(N2CC(C(=O)Nc3ccc(N(CC4CC4)c4ccccc4)cc3)CC2=O)c1 (racemic) [rac. N-[4-(Cyclopropylmethylphenylamino)phenyl]-1-(2,5-dimethylphenyl)-5-oxopyrrolidine-3-carboxamide]
- IC50: 45 nM

SMILES: CCn1c2ccccc2c2cc(NC(=O)C3CC(=O)N(CCN4CCOCC4)C3)ccc21 (racemic) [rac. N-(9-Ethyl-9H-carbazol-3-yl)-1-(2-morpholin-4-ylethyl)-5-oxopyrrolidine-3-carboxamide]
- IC50: 10 nM

SMILES: CCn1c2ccccc2c2cc(NC(=O)C3CC(=O)N(Cc4ccco4)C3)ccc21 (racemic) [rac. N-(9-Ethyl-9H-carbazol-3-yl)-1-furan-2-ylmethyl-5-oxopyrrolidine-3-carboxamide]
- IC50: 10 nM

SMILES: CCn1c2ccccc2c2cc(NC(=O)C3CC(=O)N(CCc4ccccc4)C3)ccc21 (racemic) [rac. N-(9-Ethyl-9H-carbazol-3-yl)-5-oxo-1-phenethylpyrrolidine-3-carboxamide]
- IC50: 12 nM

SMILES: CCn1c2ccccc2c2cc(NC(=O)C3CC(=O)N(c4ccc(C(C)C)cc4)C3)ccc21 (racemic) [rac. N-(9-Ethyl-9H-carbazol-3-yl)-1-(4-isopropylphenyl)-5-oxopyrrolidine-3-carboxamide]
- IC50: 30 nM

SMILES: Cc1cc(C)nc(N(C)c2ccc(NC(=O)C3CC(=O)N(c4ccccc4C(C)C)C3)cc2)n1 (racemic) [rac. N-{4-[(4,6-Dimethylpyrimidin-2-yl)methylamino]phenyl}-1-(2-isopropylphenyl)-5-oxopyrrolidine-3-carboxamide]
- IC50: 31 nM

SMILES: CCOC(=O)CN(c1ccccc1)c1ccc(NC(=O)C2CC(=O)N(c3cc(OC)ccc3C)C2)cc1 (racemic) [rac. Ethyl [(4-{[1-(5-methoxy-2-methylphenyl)-5-oxopyrrolidine-3-carbonyl]amino}phenyl)phenylamino]acetate]
- IC50: 46 nM

SMILES: CCn1c2ccccc2c2cc(NC(=O)C3CC(=O)N(Cc4ccc(Cl)cc4)C3)ccc21 (racemic) [rac. N-(9-Ethyl-9H-carbazol-3-yl)-1-(4-chlorobenzyl)-5-oxopyrrolidine-3-carboxamide]
- IC50: 10 nM

SMILES: COc1ccc(C)c(N2CC(C(=O)Nc3ccc(Nc4nc(C)cc(C)n4)cc3)CC2=O)c1 (racemic) [rac. N-[4-(4,6-Dimethylpyrimidin-2-ylamino)phenyl]-1-(5-methoxy-2-methylphenyl)-5-oxopyrrolidine-3-carboxamide]
- IC50: 26 nM

SMILES: Cc1ccc(C)c(N2CC(C(=O)Nc3ccc(-c4ccccc4)cc3)CC2=O)c1 (racemic) [rac. N-(Biphenyl-4-yl)-1-(2,5-dimethylphenyl)-5-oxopyrrolidine-3-carboxamide]
- IC50: 34 nM
